# Measured values: ChEMBL document CHEMBL6096692, “Discovery of 2(1H)-Quinoxalinone Derivatives as Potent and Selective MAT2A Inhibitors for the Treatment of MTAP-Deficient Cancers” (J Med Chem, 2025)
# Activity calls are given as the source filed them. No cut-off for these calls is given here.
# Columns and labels:
# [1] = Plasma protein binding in human assessed as unbound fraction; assay type: ADME, cell-free
# [2] = molecular target: Voltage-gated inwardly rectifying potassium channel KCNH2 (Homo sapiens, UniProt Q12809); experiment: Inhibition of hERG expressed in CHO cells incubated for 12 hrs by Qpatch assay; assay type: toxicity, cell-based
# Sequence of Voltage-gated inwardly rectifying potassium channel KCNH2 (Q12809 whole entry, canonical isoform): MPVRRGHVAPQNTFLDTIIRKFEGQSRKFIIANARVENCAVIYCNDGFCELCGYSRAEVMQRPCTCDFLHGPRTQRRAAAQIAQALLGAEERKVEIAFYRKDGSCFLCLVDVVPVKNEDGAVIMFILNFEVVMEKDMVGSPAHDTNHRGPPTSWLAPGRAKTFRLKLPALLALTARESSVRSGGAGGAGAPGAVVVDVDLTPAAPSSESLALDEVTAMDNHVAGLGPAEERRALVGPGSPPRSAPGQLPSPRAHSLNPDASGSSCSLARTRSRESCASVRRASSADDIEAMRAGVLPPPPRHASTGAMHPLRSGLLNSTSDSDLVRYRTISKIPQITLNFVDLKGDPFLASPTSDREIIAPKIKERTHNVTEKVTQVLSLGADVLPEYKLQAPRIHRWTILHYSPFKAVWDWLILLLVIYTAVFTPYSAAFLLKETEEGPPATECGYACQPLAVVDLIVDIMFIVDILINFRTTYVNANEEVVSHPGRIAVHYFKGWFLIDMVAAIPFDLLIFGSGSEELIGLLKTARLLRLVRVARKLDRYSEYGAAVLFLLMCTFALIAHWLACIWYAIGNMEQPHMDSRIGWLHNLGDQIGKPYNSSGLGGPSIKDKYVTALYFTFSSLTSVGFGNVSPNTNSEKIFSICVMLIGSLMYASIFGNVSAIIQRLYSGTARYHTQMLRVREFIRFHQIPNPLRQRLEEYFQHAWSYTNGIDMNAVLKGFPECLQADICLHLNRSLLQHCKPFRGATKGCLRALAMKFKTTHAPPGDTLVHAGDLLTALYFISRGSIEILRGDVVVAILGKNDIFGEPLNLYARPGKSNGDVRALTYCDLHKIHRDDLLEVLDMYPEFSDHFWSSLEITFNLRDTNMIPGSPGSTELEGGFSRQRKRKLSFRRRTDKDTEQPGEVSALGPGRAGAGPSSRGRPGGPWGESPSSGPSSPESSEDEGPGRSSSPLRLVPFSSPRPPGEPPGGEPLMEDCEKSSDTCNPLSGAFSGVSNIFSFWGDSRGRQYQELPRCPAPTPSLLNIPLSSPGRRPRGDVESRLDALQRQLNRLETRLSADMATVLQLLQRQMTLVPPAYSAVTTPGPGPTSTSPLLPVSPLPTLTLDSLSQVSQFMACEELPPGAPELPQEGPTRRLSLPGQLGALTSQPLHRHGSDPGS
# [3] = molecular target: T1, S-adenosylmethionine synthase isoform type-2 (Homo sapiens, UniProt P31153); experiment: Inhibition of MAT2A (unknown origin) using L-methionine and ATP as substrate preincubated with compound for 10 mins followed by substrate addition and measured after 60 mins by kinase-glo max reagent based microplate reader analysis
# Target sequence in this assay (P31153 whole entry, canonical isoform): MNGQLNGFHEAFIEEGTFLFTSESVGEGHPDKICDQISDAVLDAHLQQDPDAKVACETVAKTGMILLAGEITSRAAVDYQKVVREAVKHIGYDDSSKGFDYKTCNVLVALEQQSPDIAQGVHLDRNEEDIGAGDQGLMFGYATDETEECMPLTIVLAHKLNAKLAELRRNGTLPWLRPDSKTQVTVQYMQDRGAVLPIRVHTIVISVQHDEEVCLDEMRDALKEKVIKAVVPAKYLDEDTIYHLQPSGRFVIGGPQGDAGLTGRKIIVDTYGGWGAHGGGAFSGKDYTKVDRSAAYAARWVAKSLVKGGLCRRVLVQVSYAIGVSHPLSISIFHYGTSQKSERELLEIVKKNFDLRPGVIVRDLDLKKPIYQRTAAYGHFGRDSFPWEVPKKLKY
# B16-F10 [4] = experiment: Antiproliferative activity against mouse B16-F10 cells harboring wild type MTAP assessed as inhibition of cell viability measured for 96 hrs by SRB assay; assay type: functional, cell-based; settings: B16-F10, 96 h
# [5] = Selectivity index, ratio of IC50 for antiproliferative activity against mouse B16-F10 cells harboring wild type MTAP assessed as inhibition of cell viability to IC50 for antiproliferative activity against MTAP knockout mouse B16-F10 cells assessed as inhibition of cell viability; assay type: functional
# MIA PaCa-2 [6] = experiment: Antiproliferative activity against MTAP null human MIA PaCa-2 cells assessed as inhibition of cell viability measured for 96 hrs by SRB assay; assay type: functional, cell-based
# MCF7 = experiment: Antiproliferative activity against MTAP null human MCF7 cells assessed as inhibition of cell viability measured for 96 hrs by SRB assay; assay type: functional, cell-based
# NCI-H838 = experiment: Antiproliferative activity against MTAP null human NCI-H838 cells assessed as inhibition of cell viability measured for 96 hrs by SRB assay; assay type: functional, cell-based
# BXPC-3 = experiment: Antiproliferative activity against MTAP null human BXPC-3 cells assessed as inhibition of cell viability measured for 96 hrs by SRB assay; assay type: functional, cell-based
# MKN-45 = experiment: Antiproliferative activity against MTAP null human MKN-45 cells assessed as inhibition of cell viability measured for 96 hrs by SRB assay; assay type: functional, cell-based
# B16-F10 [7] = experiment: Antiproliferative activity against MTAP knockout mouse B16-F10 cells assessed as inhibition of cell proliferation measured for 96 hrs by SRB assay; assay type: functional, cell-based
# [8] = molecular target: T1, S-adenosylmethionine synthase isoform type-2; experiment: Inhibition of MAT2A in human MIA PaCa-2 cells assessed as reduction in SAM level measured for 4 hrs by immunoblotting analysis; assay type: cell-based; settings: dose <= 1.0 µM
# Target sequence in this assay (P31153 whole entry, looked up, canonical isoform): as the sequence (P31153 whole entry, canonical isoform) above
# [9] = molecular target: S-adenosylmethionine synthase isoform type-2 (Mus musculus) (UniProt Q3THS6); experiment: Inhibition of MAT2A in mouse B16-F10 cells assessed as reduction in SAM level measured for 4 hrs by immunoblotting analysis; assay type: cell-based; settings: dose <= 1.0 µM
# Sequence of S-adenosylmethionine synthase isoform type-2 (Mus musculus) (Q3THS6 whole entry, canonical isoform): as the sequence (P31153 whole entry, canonical isoform) above, with V77I, V87I counted along it
# [10] = molecular target: T1, S-adenosylmethionine synthase isoform type-2; experiment: Inhibition of MAT2A in MTAP null human MIA PaCa-2 cells assessed as reduction in SAM level measured for 4 hrs by immunoblotting analysis; assay type: cell-based; settings: dose <= 1.0 µM
# Target sequence in this assay (P31153 whole entry, looked up, canonical isoform): as the sequence (P31153 whole entry, canonical isoform) above
# SF-126 = experiment: Induction of DNA damage in human SF-126 cells harboring wild type MTAP assessed as increase in gammaH2AX level at 0.1 to 10 uM measured for 96 hrs by immunofluorescence analysis; assay type: functional, cell-based; settings: dose 0.1-10 µM
# [11] = Lipophilicity, LogD of the compound in 1-Octanol/PBS by shake flask method; assay type: physicochemical
# [12] = Plasma protein binding in mouse assessed as unbound fraction; assay type: ADME, cell-free
# Cytochrome P450 1A2 = molecular target: T2, Cytochrome P450 1A2 (Homo sapiens, UniProt P05177); experiment: Inhibition of CYP1A2 in human liver microsomes using phenacetin as substrate incubated for 10 mins in presence of NADPH by LC-MS/MS analysis; assay type: ADME, Microsome
# T2 sequence (P05177 whole entry): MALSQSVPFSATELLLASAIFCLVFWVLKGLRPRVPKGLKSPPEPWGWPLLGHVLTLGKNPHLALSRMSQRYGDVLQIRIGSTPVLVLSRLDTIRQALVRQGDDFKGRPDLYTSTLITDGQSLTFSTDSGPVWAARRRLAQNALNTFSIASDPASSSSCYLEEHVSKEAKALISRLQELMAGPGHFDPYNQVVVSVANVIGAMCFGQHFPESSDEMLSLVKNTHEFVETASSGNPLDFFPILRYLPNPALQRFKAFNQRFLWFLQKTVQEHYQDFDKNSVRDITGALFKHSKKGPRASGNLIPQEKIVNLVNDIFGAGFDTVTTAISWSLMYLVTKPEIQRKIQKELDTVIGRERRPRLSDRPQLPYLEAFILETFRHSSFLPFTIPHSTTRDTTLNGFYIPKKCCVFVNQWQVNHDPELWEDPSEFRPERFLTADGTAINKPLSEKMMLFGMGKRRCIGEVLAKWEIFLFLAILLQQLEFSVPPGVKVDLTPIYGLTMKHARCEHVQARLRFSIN
# Cytochrome P450 2C9 = Cytochrome P450 2C9 (Homo sapiens, UniProt P11712); experiment: Inhibition of CYP2C9 in human liver microsomes using diclofenac as substrate incubated for 10 mins in presence of NADPH by LC-MS/MS analysis; assay type: ADME, Microsome
# Sequence of Cytochrome P450 2C9 (P11712 whole entry): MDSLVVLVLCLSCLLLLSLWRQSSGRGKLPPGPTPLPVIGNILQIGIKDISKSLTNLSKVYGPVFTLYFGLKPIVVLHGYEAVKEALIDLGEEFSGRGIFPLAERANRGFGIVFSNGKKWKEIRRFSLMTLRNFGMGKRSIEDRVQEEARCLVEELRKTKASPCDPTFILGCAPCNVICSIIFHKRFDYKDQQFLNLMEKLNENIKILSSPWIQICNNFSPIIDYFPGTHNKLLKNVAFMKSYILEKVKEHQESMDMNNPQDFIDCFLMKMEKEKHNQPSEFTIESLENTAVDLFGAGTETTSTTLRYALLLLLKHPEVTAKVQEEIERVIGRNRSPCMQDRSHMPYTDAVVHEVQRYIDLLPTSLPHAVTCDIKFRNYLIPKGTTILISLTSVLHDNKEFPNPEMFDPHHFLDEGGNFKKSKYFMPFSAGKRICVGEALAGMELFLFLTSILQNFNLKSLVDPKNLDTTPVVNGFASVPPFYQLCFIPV
# Cytochrome P450 2C19 = Cytochrome P450 2C19 (Homo sapiens, UniProt P33261); experiment: Inhibition of CYP2C19 in human liver microsomes using S-mephenytoin as substrate incubated for 10 mins in presence of NADPH by LC-MS/MS analysis; assay type: ADME, Microsome
# Sequence of Cytochrome P450 2C19 (P33261 whole entry): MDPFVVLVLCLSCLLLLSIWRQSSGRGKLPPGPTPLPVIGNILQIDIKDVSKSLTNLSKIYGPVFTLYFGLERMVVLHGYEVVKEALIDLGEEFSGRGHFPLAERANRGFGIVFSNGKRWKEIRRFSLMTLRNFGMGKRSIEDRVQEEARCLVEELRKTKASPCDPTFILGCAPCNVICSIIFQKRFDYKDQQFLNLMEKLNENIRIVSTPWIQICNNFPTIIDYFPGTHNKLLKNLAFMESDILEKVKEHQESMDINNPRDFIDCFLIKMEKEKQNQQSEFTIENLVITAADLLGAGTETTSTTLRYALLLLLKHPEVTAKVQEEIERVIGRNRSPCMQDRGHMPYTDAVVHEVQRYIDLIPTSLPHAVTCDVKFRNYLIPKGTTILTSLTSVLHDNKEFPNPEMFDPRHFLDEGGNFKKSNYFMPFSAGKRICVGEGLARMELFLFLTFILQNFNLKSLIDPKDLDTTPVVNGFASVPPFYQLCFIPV
# Cytochrome P450 2D6 = Cytochrome P450 2D6 (Homo sapiens, UniProt P10635); experiment: Inhibition of CYP2D6 in human liver microsomes using dextromethorphan as substrate incubated for 10 mins in presence of NADPH by LC-MS/MS analysis; assay type: ADME, Microsome
# Sequence of Cytochrome P450 2D6 (P10635 whole entry): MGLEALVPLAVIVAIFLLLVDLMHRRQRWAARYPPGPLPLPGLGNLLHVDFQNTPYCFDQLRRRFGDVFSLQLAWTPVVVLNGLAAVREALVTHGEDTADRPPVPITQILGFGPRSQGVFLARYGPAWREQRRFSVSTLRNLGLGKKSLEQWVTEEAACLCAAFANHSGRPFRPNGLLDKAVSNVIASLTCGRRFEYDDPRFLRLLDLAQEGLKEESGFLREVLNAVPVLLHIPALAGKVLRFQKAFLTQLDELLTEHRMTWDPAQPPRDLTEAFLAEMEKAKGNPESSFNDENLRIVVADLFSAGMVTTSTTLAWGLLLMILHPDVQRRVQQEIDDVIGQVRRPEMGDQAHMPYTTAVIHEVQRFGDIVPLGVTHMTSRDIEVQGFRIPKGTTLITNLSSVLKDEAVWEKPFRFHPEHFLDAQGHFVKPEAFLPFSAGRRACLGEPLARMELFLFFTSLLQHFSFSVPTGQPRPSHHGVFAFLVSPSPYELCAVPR
# [13] = Clearance in male ICR mouse at 1 mg/kg, iv measured upto 36 hrs by LC-MS/MS analysis; assay type: ADME, organism-based; settings: in vivo
# [14] = Half life in male ICR mouse at 10 mg/kg, po measured upto 36 hrs by LC-MS/MS analysis; assay type: ADME, organism-based; settings: in vivo
# [15] = Bioavailability in male ICR mouse at 1 mg/kg measured upto 36 hrs by LC-MS/MS analysis; assay type: ADME, organism-based; settings: in vivo
# [16] = Toxicity in ICR mouse at 500 mg/kg, po measured for 7 days; assay type: organism-based; settings: in vivo, 168 h, time 7 day
# B16-F10 [17] = experiment: Antitumor activity against MTAP-knockout mouse B16-F10 cells implanted in mouse assessed as reduction in SAM level in plasma at 30 to 60 mg/kg, po administered for 10 days and measured after 12 hrs; assay type: functional, organism-based; settings: dose 30-60 mg/kg, time 10.5 day
# B16-F10 [18] = experiment: Antitumor activity against MTAP-knockout mouse B16-F10 cells implanted mouse assessed as reduction in SAM level in tumor at 30 to 60 mg/kg, po administered for 10 days and measured after 12 hrs; assay type: functional, organism-based; settings: dose 30-60 mg/kg, time 10.5 day
# MIA PaCa-2 [19] = experiment: Antitumor activity against MTAP null human MIA PaCa-2 cells xenografted in mouse assessed as tumor growth inhibition at 60 mg/kg, po measured after 28 days; assay type: functional, organism-based; settings: time 28.0 day
# MIA PaCa-2 [20] = experiment: Antitumor activity against MTAP null human MIA PaCa-2 cells xenografted in mouse assessed as inhibition of SAM production in plasma at 30 to 60 mg/kg, po measured after 28 days; assay type: functional, organism-based; settings: dose 30-60 mg/kg, time 28.0 day
# MIA PaCa-2 [21] = experiment: Antitumor activity against MTAP null human MIA PaCa-2 cells xenografted in mouse assessed as inhibition of SAM production in tumor at 30 to 60 mg/kg, po measured after 28 days; assay type: functional, organism-based; settings: dose 30-60 mg/kg, time 28.0 day
# [22] = Drug concentration in mouse plasma at 30 mg/kg, po; assay type: ADME, organism-based; settings: in vivo
smiles,measurement,setting,value
Cn1cnc2ccc(-c3nc4ccc(C5CC5)cc4n(-c4ccc(OC(F)F)cc4)c3=O)cc21,fraction unbound,[1],0.003
same,IC50,[2],38 µM
same,IC50,[3],0.049 µM
same,IC50,B16-F10 [4],> 20 µM
same,Ratio IC50,[5],>46.5
same,Activity,MIA PaCa-2 [6],Active
same,Activity,MCF7,Active
same,Activity,NCI-H838,Active
same,Activity,BXPC-3,Active
same,Activity,MKN-45,Active
same,Activity,B16-F10 [7],Active
same,inhibition,[8],Dose-dependent-effect
same,inhibition,[9],Dose-dependent-effect
same,inhibition,[10],Dose-dependent-effect
same,Activity,SF-126,Active
same,logD,[11],3.69
same,fraction unbound,[12],0.016
same,IC50,Cytochrome P450 1A2,> 30 µM
same,IC50,Cytochrome P450 2C9,12.7 µM
same,IC50,Cytochrome P450 2C19,8.7 µM
same,IC50,Cytochrome P450 2D6,9.2 µM
same,clearance,[13],5.17 mL/min/kg
same,half-life,[14],6.73 h
same,bioavailability,[15],118%
same,Activity,[16],Non-toxic
same,Activity,B16-F10 [17],Active
same,Activity,B16-F10 [18],Active
same,TGI,MIA PaCa-2 [19],Active
same,Activity,MIA PaCa-2 [20],Active
same,Activity,MIA PaCa-2 [21],Active
same,Drug uptake,[22],Active
